Values after ≈ are worked out from the molar mass of the structure shown. Bounds are passed on as bounds.

In the experiment the test system is S aureus A798. The experiment is described as follows: Minimal inhibitory concentration (MIC), microdilution method in cation-adjusted Mueller-Hinton Broth following NCCLS guidelines. The following applies: pH of test medium 7.2-7.3. The class given is cell-based. In short, it runs like this:
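MICs (mg/l) came from NCCLS-guided microdilution, using cation-adjusted Mueller-Hinton medium adjusted to pH 7.2-7.3.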
A general note: Dilution methods test growth across graded concentrations, often in twofold steps.

In general, MIC refers to the least concentration at which growth counts as inhibited. Low values mean a more susceptible organism, high ones a less susceptible organism. As to `COc1ccc2nccc(N3CC(N(C)C[C@@H]4CN(c5ccc(OC(F)F)cc5)C(=O)O4)C3)c2n1` [Example 134, (R)-3-(4-Difluoromethoxy-phenyl)-5-({[1-(6-methoxy-[1,5]naphthyridin-4-yl)-azetidin-3-yl]-methyl-amino}-methyl)-oxazolidin-2-one], the MIC is at most 0.031 µg/mL.

In the case of `COc1ccc2nccc(N3CC(N(C)C[C@@H]4CN(c5ccc(C)c(C(F)(F)F)c5)C(=O)O4)C3)c2n1` [Example 135, (R)-5-({[1-(6-Methoxy-[1,5]naphthyridin-4-yl)-azetidin-3-yl]-methyl-amino}-methyl)-3-(4-methyl-3-trifluoromethyl-phenyl)-oxazolidin-2-one], the MIC was at most 0.031 µg/mL. For `COc1ccc2nccc(N3CC(N(C)C[C@@H]4CN(c5ccc(F)c(Cl)c5)C(=O)O4)C3)c2n1` [Example 136, (R)-3-(3-Chloro-4-fluoro-phenyl)-5-({[1-(6-methoxy-[1,5]naphthyridin-4-yl)-azetidin-3-yl]-methyl-amino}-methyl)-oxazolidin-2-one] the value was 0.25 µg/mL (≈ 0.53 µM); for `CCc1ccc(N2C[C@@H](CN(C)C3CN(c4ccnc5ccc(OC)nc45)C3)OC2=O)cc1` [Example 137, (R)-3-(4-Ethyl-phenyl)-5-({[1-(6-methoxy-[1,5]naphthyridin-4-yl)-azetidin-3-yl]-methyl-amino}-methyl)-oxazolidin-2-one], at most 0.031 µg/mL; for `COc1ccc2nccc(N3CC(N(C)C[C@@H]4CN(c5ccc(C)c(C)c5)C(=O)O4)C3)c2n1` [Example 138, (R)-3-(3,4-Dimethyl-phenyl)-5-({[1-(6-methoxy-[1,5]naphthyridin-4-yl)-azetidin-3-yl]-methyl-amino}-methyl)-oxazolidin-2-one], at most 0.031 µg/mL.

Consider `CCCc1ccc(N2C[C@@H](CN(C)C3CN(c4ccnc5ccc(OC)nc45)C3)OC2=O)cc1` [Example 139, (R)-5-({[1-(6-Methoxy-[1,5]naphthyridin-4-yl)-azetidin-3-yl]-methyl-amino}-methyl)-3-(4-propyl-phenyl)-oxazolidin-2-one], for which the MIC was at most 0.031 µg/mL.

On to `COc1ccc2nccc(N3CC(N(C)C[C@@H]4CN(c5cccc(N(C)C)c5)C(=O)O4)C3)c2n1` [Example 140, (R)-3-(3-Dimethylamino-phenyl)-5-({[1-(6-methoxy-[1,5]naphthyridin-4-yl)-azetidin-3-yl]-methyl-amino}-methyl)-oxazolidin-2-one], for which it took 0.25 µg/mL (≈ 0.54 µM) to inhibit growth (MIC). For `COc1ccc2nccc(N3CC(N(C)C[C@@H]4CN(c5ccc(Br)c(F)c5)C(=O)O4)C3)c2n1` [Example 141, (R)-3-(4-Bromo-3-fluoro-phenyl)-5-({[1-(6-methoxy-[1,5]naphthyridin-4-yl)-azetidin-3-yl]-methyl-amino}-methyl)-oxazolidin-2-one] the value was at most 0.031 µg/mL. Compound `COc1ccc2nccc(N3CC(N(C)C[C@@H]4CN(c5ccc(C)c(Br)c5)C(=O)O4)C3)c2n1` [Example 142, (R)-3-(3-Bromo-4-methyl-phenyl)-5-({[1-(6-methoxy-[1,5]naphthyridin-4-yl)-azetidin-3-yl]-methyl-amino}-methyl)-oxazolidin-2-one] had a minimum inhibitory concentration (MIC) of at most 0.031 µg/mL. For `COc1ccc2nccc(N3CC(N(C)C[C@@H]4CN(c5ccc(Br)c(C)c5)C(=O)O4)C3)c2n1` [Example 143, (R)-3-(4-Bromo-3-methyl-phenyl)-5-({[1-(6-methoxy-[1,5]naphthyridin-4-yl)-azetidin-3-yl]-methyl-amino}-methyl)-oxazolidin-2-one] the value was at most 0.031 µg/mL; for `COc1ccc2nccc(N3CC(N(C)C[C@@H]4CN(c5ccc6ncsc6c5)C(=O)O4)C3)c2n1` [Example 144, (R)-3-Benzothiazol-6-yl-5-({[1-(6-methoxy-[1,5]naphthyridin-4-yl)-azetidin-3-yl]-methyl-amino}-methyl)-oxazolidin-2-one], 0.063 µg/mL (≈ 0.132 µM); for `COc1ccc2nccc(N3CC(N(C)C[C@@H]4CN(c5ccc6c(c5)OCO6)C(=O)O4)C3)c2n1` [Example 145, (R)-3-Benzo[1,3]dioxol-5-yl-5-({[1-(6-methoxy-[1,5]naphthyridin-4-yl)-azetidin-3-yl]-methyl-amino}-methyl)-oxazolidin-2-one], 0.125 µg/mL (≈ 0.27 µM). Regarding `COc1ccc2nccc(N3CC(N(C)C[C@@H]4CN(c5ccc6scnc6c5)C(=O)O4)C3)c2n1` [Example 146, (R)-3-Benzothiazol-5-yl-5-({[1-(6-methoxy-[1,5]naphthyridin-4-yl)-azetidin-3-yl]-methyl-amino}-methyl)-oxazolidin-2-one], the MIC amounted to 0.063 µg/mL (≈ 0.132 µM). `COc1ccc2nccc(N3CC(N(C)C[C@@H]4CN(c5cccc(F)c5)C(=O)O4)C3)c2n1` [Example 147, (R)-3-(3-Fluoro-phenyl)-5-({[1-(6-methoxy-[1,5]naphthyridin-4-yl)-azetidin-3-yl]-methyl-amino}-methyl)-oxazolidin-2-one]: inhibition of growth (MIC) required 0.25 µg/mL (≈ 0.571 µM). Take `COc1ccc2nccc(N3CC(C(=O)NC[C@@H]4CN(c5ccc(C)c(F)c5)C(=O)O4)C3)c2n1` [Example 148, 1-(6-Methoxy-[1,5]naphthyridin-4-yl)-azetidine-3-carboxylic acid [(R)-3-(3-fluoro-4-methyl-phenyl)-2-oxo-oxazolidin-5-ylmethyl]-amide]: the minimum inhibitory concentration (MIC) is 0.5 µg/mL (≈ 1.07 µM). Turning to `COc1ccc2nccc(N3CC(N(C)C[C@@H]4CN(c5ccc6c(n5)NC(=O)CO6)C(=O)O4)C3)c2n1` [Example 150, 6-[(R)-5-({[1-(6-Methoxy-[1,5]naphthyridin-4-yl)-azetidin-3-yl]-methyl-amino}-methyl)-2-oxo-oxazolidin-3-yl]-4H-pyrido[3,2-b][1,4]oxazin-3-one], the MIC was at most 0.031 µg/mL. `COc1ccc2nccc(N3C[C@@H]4C[C@H]3CN4C[C@@H]3CN(c4ccc5c(c4)NC(=O)CO5)C(=O)O3)c2n1` [Example 151, 6-{(R)-5-[(1S,4S)-5-(6-Methoxy-[1,5]naphthyridin-4-yl)-2,5-diaza-bicyclo[2.2.1]hept-2-ylmethyl]-2-oxo-oxazolidin-3-yl}-4H-benzo[1,4]oxazin-3-one] returned an MIC of 0.063 µg/mL (≈ 0.125 µM).

Compound `COc1ccc2nccc(N3C[C@@H]4C[C@H]3CN4C[C@@H]3CN(c4ccc5c(c4)NC(=O)CS5)C(=O)O3)c2n1` [Example 152, 6-{(R)-5-[(1S,4S)-5-(6-Methoxy-[1,5]naphthyridin-4-yl)-2,5-diaza-bicyclo[2.2.1]hept-2-ylmethyl]-2-oxo-oxazolidin-3-yl}-4H-benzo[1,4]thiazin-3-one] gave a minimal inhibitory concentration (MIC) of 0.063 µg/mL (≈ 0.121 µM). For `COc1ccc2nccc(N3CC(N(C)C[C@@H]4CN(c5cc6c(nn5)OCCO6)C(=O)O4)C3)c2n1` [Example 153, (R)-3-(6,7-Dihydro-[1,4]dioxino[2,3-c]pyridazin-3-yl)-5-({[1-(6-methoxy-[1,5]naphthyridin-4-yl)-azetidin-3-yl]-methyl-amino}-methyl)-oxazolidin-2-one], the MIC was 4 µg/mL (≈ 8.34 µM). With `COc1ccc2nccc(N3CC(CNC[C@@H]4CN(c5ccc(C)c(F)c5)C(=O)O4)C3)c2n1` [Example 154, (R)-3-(3-Fluoro-4-methyl-phenyl)-5-({[1-(6-methoxy-[1,5]naphthyridin-4-yl)-azetidin-3-ylmethyl]-amino}-methyl)-oxazolidin-2-one] the figure was 0.063 µg/mL (≈ 0.14 µM). With `COc1ccc2ncc(F)c(N3CC(NC[C@@H]4CN(c5cc6c(cc5F)SCC(=O)N6)C(=O)O4)C3)c2n1` [Example 155, 7-Fluoro-6-((R)-5-{[1-(3-fluoro-6-methoxy-[1,5]naphthyridin-4-yl)-azetidin-3-ylamino]-methyl}-2-oxo-oxazolidin-3-yl)-4H-benzo[1,4]thiazin-3-one] the figure was at most 0.031 µg/mL; with `COc1ccc2nccc(N3CC(NC[C@@H]4CN(c5ccc6c(c5)NC(=O)CO6)C(=O)O4)C3)c2c1` [Example 156, 6-((R)-5-{[1-(6-Methoxy-quinolin-4-yl)-azetidin-3-ylamino]-methyl}-2-oxo-oxazolidin-3-yl)-4H-benzo[1,4]oxazin-3-one], at most 0.031 µg/mL; with `COc1cnc2cccc(N3CC(NC[C@@H]4CN(c5ccc6c(c5)NC(=O)CS6)C(=O)O4)C3)c2c1` [Example 157, 6-((R)-5-{[1-(3-Methoxy-quinolin-5-yl)-azetidin-3-ylamino]-methyl}-2-oxo-oxazolidin-3-yl)-4H-benzo[1,4]thiazin-3-one], at most 0.031 µg/mL.

Compound `COc1ccc2cccc(N3CC(NC[C@@H]4CN(c5ccc6c(c5)NC(=O)CS6)C(=O)O4)C3)c2n1` [Example 158, 6-((R)-5-{[1-(2-Methoxy-quinolin-8-yl)-azetidin-3-ylamino]-methyl}-2-oxo-oxazolidin-3-yl)-4H-benzo[1,4]thiazin-3-one] came in with an MIC of at most 0.031 µg/mL. For `COc1ccc2ccc(F)c(N3CC(NC[C@@H]4CN(c5ccc6c(c5)NC(=O)CS6)C(=O)O4)C3)c2n1` [Example 159, 6-((R)-5-{[1-(7-Fluoro-2-methoxy-quinolin-8-yl)-azetidin-3-ylamino]-methyl}-2-oxo-oxazolidin-3-yl)-4H-benzo[1,4]thiazin-3-one], the MIC is at most 0.031 µg/mL. For `O=C1CSc2ccc(N3C[C@@H](CNC4CN(c5ccnc6ccc(F)cc56)C4)OC3=O)cc2N1` [Example 160, 6-((R)-5-{[1-(6-Fluoro-quinolin-4-yl)-azetidin-3-ylamino]-methyl}-2-oxo-oxazolidin-3-yl)-4H-benzo[1,4]thiazin-3-one] the value was at most 0.031 µg/mL; for `N#Cc1ccc2nccc(N3CC(NC[C@@H]4CN(c5ccc6c(c5)NC(=O)CS6)C(=O)O4)C3)c2c1` [Example 161, 4-(3-{[(R)-2-oxo-3-(3-oxo-3,4-dihydro-2H-benzo[1,4]thiazin-6-yl)-oxazolidin-5-ylmethyl]amino}-azetidin-1-yl)-quinoline-6-carbonitrile], at most 0.031 µg/mL. With `COc1ccc2cccc(N3CC(CNC[C@@H]4CN(c5ccc6c(c5)NC(=O)CS6)C(=O)O4)C3)c2n1` [Example 162, 6-[(R)-5-({[1-(2-Methoxy-quinolin-8-yl)-azetidin-3-ylmethyl]-amino}-methyl)-2-oxo-oxazolidin-3-yl]-4H-benzo[1,4]thiazin-3-one] the figure was at most 0.031 µg/mL; with `COc1cnc2cccc(N3CC(CNC[C@@H]4CN(c5ccc6c(c5)NC(=O)CS6)C(=O)O4)C3)c2c1` [Example 163, 6-[(R)-5-({[1-(3-Methoxy-quinolin-5-yl)-azetidin-3-ylmethyl]-amino}-methyl)-2-oxo-oxazolidin-3-yl]-4H-benzo[1,4]thiazin-3-one], at most 0.031 µg/mL.

Source of the values: US8217029B2, “Oxazolidinone antibiotics” (Actelion Pharmaceuticals Ltd, priority 2007, dated 2012).
